Experimental data taken from US6451809B2 (dated 2002).

Q: With Cc1ccc(CNC(=O)C2=C3N(CCC2=O)c2ccccc2N3CCN(C)C)cc1 as the compound, how does the melting point read?
A: 120 to 122 °C

Q: For CCNCCOc1ccc(NC(=O)C2=C(O)CCn3c2nc2ccccc23)cc1.Cl, which melting point is on record?
A: 60 to 65 °C

Q: Which melting point does the source give for Cl.O=C(Nc1ccc(OCCN2CCCC2)cc1)C1=C(O)CCn2c1nc1ccccc12 here?
A: 130 to 142 °C

Q: With CCN(CC)CCOc1ccncc1NC(=O)C1=C(O)CCn2c1nc1ccccc12.Cl as the compound, how does the melting point read?
A: 175 to 178 °C

Q: Which melting point does the source give for Cl.O=C(Nc1cnccc1OCCN1CCCC1)C1=C(O)CCn2c1nc1ccccc12 here?
A: 170 to 174 °C

Q: For Cl.O=C(Nc1cnccc1OCCN1CCCCC1)C1=C(O)CCn2c1nc1ccccc12, which melting point is on record?
A: 225 to 230 °C

Q: For Cl.O=C(Nc1cnccc1OCCOCCN1CCCC1)C1=C(O)CCn2c1nc1ccccc12, which melting point is on record?
A: 55 to 65 °C

Q: Which melting point does the source give for Cl.O=C(Nc1cnccc1OCCCN1CCCC1)C1=C(O)CCn2c1nc1ccccc12 here?
A: 60 to 68 °C

Q: With CN(C)CCN1C2=C(C(=O)NCc3ccccc3Cl)C(=O)CCN2c2ccccc21 as the compound, how does the melting point read?
A: 138 to 140 °C
